The numbers were not newly measured in US6322816A, “Fast-acting analgesic” (priority 1997, dated 2001), which cites them from elsewhere.

Where a name gives a salt, the structure may show the parent alone.

For data set [1] the following is noted: in words, background.
The conditions of data set [2]: versus free acid; in words, background.
For data set [3] the following is noted: in words, DE-C 36 39 038.

On to `CC(C)Cc1ccc(C(C)C(=O)O)cc1` (racemic) [ibuprofen, 2-(4-isobutylphenyl)propionic acid], for which the solubility result in data set [1] is “low solubility”. Regarding `CC(C)Cc1ccc(C(C)C(=O)O)cc1` (racemic) [lysine salt], in data set [2], the “maximum blood level Cmax compared with the free acid” value was “distinctly faster and higher maximum blood level Cmax”. As for `CC(C)Cc1ccc(C(C)C(=O)O)cc1` (racemic) [sodium ibuprofenate], the hygroscopicity result in data set [1] is reported as “hygroscopic”. `CC(C)Cc1ccc([C@H](C)C(=O)O)cc1` [S(+) isomer, S(+)-ibuprofen]: in data set [3], the onset of action result is “faster onset of action”.
